The record followed here is US6576771B1, “Oxymethoxy-3-aryl-pyrone derivatives” (Bayer Aktiengesellschaft, priority 1995, dated 2003).

In one series the test system is Sphaerotheca fuliginea. In words: Sphaerotheca test (cucumber) / protective. The following applies: active compound concentration 100 ppm, evaluation 10 days after inoculation.
Series [1] concerns caterpillars of the owlet moth (Spodoptera frugiperda). In words: Spodoptera test. The class given is in vivo. Particulars: after 7 days; active compound concentration 0.1%; cabbage leaves dipped. How it is done:
Solvent: 7 parts by weight of dimethylformamide
(§1) Emulsifier: 1 part by weight of alkylaryl polyglycol ether
Cabbage leaves (Brassica oleracea) are treated by being dipped into the preparation of the active compound of the desired concentration and are infested with caterpillars of the owlet moth (Spodoptera frugiperda), while the leaves are still moist.
After the specified period of time, the destruction in % is determined. 100% means that all the caterpillars have been killed; 0% means that none of the caterpillars have been killed.

Series [2] relates to caterpillars of the diamond-back moth (Plutella maculipennis). Briefly: Plutella test. The class given is in vivo. The following applies: after 7 days; active compound concentration 0.1%; cabbage leaves dipped. How it is done: Plutella Test Solvent: 7 parts by weight of dimethylformamide Emulsifier: 1 part by weight of alkylaryl polyglycol ether […] Cabbage leaves (Brassica oleracea) are treated by being dipped into the preparation of the active compound of the desired concentration and are infested with caterpillars of the diamond-back moth (Plutella maculipennis), while the leaves are still moist.

Series [3] relates to mustard beetle larvae (Phaedon cochleariae). Briefly: Phaedon larvae test. The class given is in vivo. The following applies: after 7 days; active compound concentration 0.01%; cabbage leaves dipped. Here is the method: Phaedon Larvae Test Solvent: 7 parts by weight of dimethylformamide Emulsifier: 1 part by weight of alkylaryl polyglycol ether […] Cabbage leaves (Brassica oleracea) are treated by being dipped into the preparation of the active compound of the desired concentration and are infested with mustard beetle larvae (Phaedon cochleariae), while the leaves are still moist.

Series [4] has as its system black bean aphids (Aphis fabae). Briefly: Limit concentration test / root-systemic action. The series is classed as in vivo. The following applies: active compound concentration 20 ppm in soil; beans (Vicia faba); leaves infested after 7 days, evaluated after a further 2 days. The text has this:
Limit Concentration Test/Root-systemic Action Test insect: Aphis fabae Solvent: 4 parts by weight of acetone Emulsifier: 1 part by weight of alkylaryl polyglycol ether […] The preparation of active compound is intimately mixed with soil. The concentration of the active compound in the preparation is of no importance in practise, only the amount by weight of active compound per unit volume of soil, which is given in ppm (=mg/l), being decisive. The treated soil is transferred into pots and these are planted with beans (Vicia faba). The active compound can in this way be taken up from the soil by the roots of the plants and be transported into the leaves. […] After a further 2 days, the evaluation is made by counting or estimating the dead animals. The root-systemic action of the active compound is deduced from the destruction figures.

For series [5], the system named is All larval stages of Lucilia cuprina (OP resistant). In words: Test with fly larvae / development-inhibiting activity. The class given is in vivo. The following applies: active compound concentration 1000 ppm. Here is the method: Test with Fly Larvae/Development-inhibiting Activity
Test animals: All larval stages of Lucilia cuprina (OP resistant) [Pupae and adults (without contact with the active compound)]
Solvent: 35 parts by weight of ethylene glycol monomethyl ether 35 parts by weight of nonylphenol polyglycol ether
For each concentration, 30 to 50 larvae are introduced into test tubes containing horse meat (1 cm^3), onto which […] of the dilution under test are pipetted. The glass test tubes are placed in plastic beakers which have bottoms covered with sea sand and are kept in an air-conditioned room (26° C.±1.5° C., 70% relative humidity ±10%). The action is inspected after 24 hours and 48 hours (larvicidal action). After emigration of the larvae (approximately 72 h), the test tubes are removed and perforated plastic lids are placed on the beakers. After 1½ times the development period (emergence of the control flies), the emerged flies and the pupae/pupal cases are counted.
The criterion of activity used is the occurrence of death of the treated larvae after 48 h (larvicidal effect), or the inhibition of adult emergence from the pupae, or inhibition of pupal formation. The criterion used for the in-vitro activity of a substance is inhibition of fly development, or cessation of development prior to the adult stage. 100% larvicidal activity means that all larvae have died after 48 hours. 100% development inhibition activity means that no adult flies emerged.

The test system of series [6] is larvae of the green rice leafhopper (Nephotettix cincticeps). In words: Nephotettix test. The series is classed as in vivo. The following applies: after 6 days; active compound concentration 0.1%; rice seedlings dipped. How it is done:
Nephotettix Test Solvent: 7 parts by weight of dimethylformamide Emulsifier: 1 part by weight of alkylaryl polyglycol ether […] Rice seedlings (Oryzae sativa) are treated by being dipped into the preparation of the active compound of the desired concentration and are infested with larvae of the green rice leafhopper (Nephotettix cincticeps), while the seedlings are still moist.

Series [7] concerns common spider mite (Tetranychus urticae). In words: Tetranychus test (resistance). The class given is in vivo. The following applies: after 13 days; active compound concentration 0.01%; bean plants dipped. How it is done:
Tetranychus Test (Resistance)
Solvent: 3 parts by weight of dimethylformamide
as §1
After the specified period of time, the destruction in % is determined. 100% means that all the spider mites have been killed 0% means that none of the spider mites have been killed.

Description for Sphaerotheca fuliginea: Solvent: 4.7 parts by weight of acetone
Emulsifier: 0.3 parts by weight of alkylaryl polyglycol ether
After the spray coating has dried on, the plants are dusted with conidia of the fungus Sphaerotheca fuliginea.
The plants are then placed in a greenhouse at 23 to 24° C. and at a relative atmospheric humidity of about 75%.
Evaluation is carried out 10 days after the inoculation.

For `Cc1cc(C)c(-c2c(OCOCC(C)C)oc(-c3ccsc3)c(C)c2=O)c(C)c1` [Example 36, 2-[(2-Methyl-1-propoxy)-methoxy]-5-methyl-6-(3-thienyl)-3-(2,4,6-trimethyl-phenyl)-4-pyrone], the melting point was 102 to 104 °C.

`Cc1cc(C)c(-c2c(OCOCC(C)C)c(C)c(-c3ccc(Cl)cc3)oc2=O)c(C)c1` [Example 2, 6-(4-chlorophenyl)-4-[(2-methyl-1-propoxy)-methoxy]-5-methyl-3-(2,4,6-trimethylphenyl)-2-pyrone]: the “activity in comparison with the untreated control” value (from here on “activity in comparison”) in the series on Sphaerotheca fuliginea came to 100%.

On to `CCOCOc1cc(CC(C)C)oc(=O)c1-c1c(C)cc(C)cc1C` [Example 5], for which the degree of destruction in series [1], in [2] and in series [3] was 100% throughout.

Consider `C#CCOCOc1c(C)c(-c2ccccn2)oc(=O)c1-c1c(C)cc(C)cc1C` [Example 1, 5-methyl-6-(2-pyridyl)-4-propargyloxymethoxy-3-(2,4,6-trimethylphenyl)-2-pyrone], for which, in the series with Sphaerotheca fuliginea, the “activity in comparison” value was 100%. For the same compound, the “degree of destruction (root-systemic action)” value in series [4] is 100%. For the same compound, the inhibition at 1000 ppm in series [5] (Lucilia cuprina, read-out: activity (larvicidal / development inhibition)) came to 100%. Also, the degree of destruction in [6] turned out to be 100%.

As for `Cc1cc(C)c(-c2c(OCOC(C)C)c(C)c(C3CCCC3)oc2=O)c(C)c1` [Example 34], the degree of destruction in series [1] and in [2] was 100% in each case.

In the case of `Cc1cc(C)c(-c2c(OCOC(C)C)cc(C3(Cl)CC3)oc2=O)c(C)c1` [Example 21], the “activity in comparison” value with Sphaerotheca fuliginea worked out at 100%. Besides, the degree of destruction in series [7] and in series [6] was 100% each time.

On to `CCOCOc1c(C)c(-c2ccccn2)oc(=O)c1-c1c(C)cc(C)cc1C` [Example 26], for which the degree of destruction in series [3] and in [6] was 100% throughout.

For the compound `Cc1cc(C)c(-c2c(OCOC(C)C)c(C)c(-c3cccc(C)n3)oc2=O)c(C)c1` [Example 28], the degree of destruction in [2], in [3] and in series [6] was 100% throughout.

Consider `Cc1cc(C)c(-c2c(OCOC(C)C)c(C)c(-c3ccccn3)oc2=O)c(C)c1` [Example 11], for which the “activity in comparison” value with Sphaerotheca fuliginea was 100%. For the same compound, the “degree of destruction (root-systemic action)” value in series [4] is recorded as 100%. In addition, the degree of destruction in [7] and in [6] was 100% in each case. Also, the “activity (larvicidal / development inhibition)” value in series [5] turned out to be 100%.

Regarding `CCOCOc1c(C)c(-c2ccc(F)cc2)oc(=O)c1-c1c(C)cc(C)cc1C` [Example 4], the “activity in comparison” value in the series with Sphaerotheca fuliginea is 100%. Moreover, the degree of destruction in [1], in series [2], in series [3] and in series [6] was 100% in each case. For the same compound, the “activity (larvicidal / development inhibition)” value in series [5] is reported as 100%.

In the case of `CCOCOc1c(C)c(C2CCCC2)oc(=O)c1-c1c(C)cc(C)cc1C` [Example 32], the degree of destruction in series [1], in series [2] and in series [6] was 100% throughout.

Turning to `Cc1cc(C)c(-c2c(OCOC(C)C)c(C)c(-c3ccc(F)cc3)oc2=O)c(C)c1` [Example 9], in the series with Sphaerotheca fuliginea, the “activity in comparison” value was 100%. In addition, the degree of destruction in series [1], in series [2], in series [3], in [7] and in series [6] was 100% each time. Moreover, the “activity (larvicidal / development inhibition)” value in [5] amounted to 100%.

As to `C#CCOCOc1c(C)c(-c2ccc(F)cc2)oc(=O)c1-c1c(C)cc(C)cc1C` [Example 7], in the series with Sphaerotheca fuliginea, the “activity in comparison” value is reported as 100%. For the same compound, the degree of destruction in series [6] is 100%.

For the compound `Cc1cc(C)c(-c2c(OCOCC(C)C)c(C)c(-c3ccc(F)cc3)oc2=O)c(C)c1` [Example 8], the “activity in comparison” value in the series on Sphaerotheca fuliginea is recorded as 100%.

As to `Cc1cc(C)c(-c2c(OCOCC(C)C)c(C)c(-c3cccc(C)n3)oc2=O)c(C)c1` [Example 27], the degree of destruction in series [2], in series [3] and in series [6] was 100% each time.

On to `Cc1cc(C)c(-c2c(OCOCC(C)C)c(C)c(-c3ccccn3)oc2=O)c(C)c1` [Example 10], for which the “activity in comparison” value in the series with Sphaerotheca fuliginea is 100%. Moreover, the “degree of destruction (root-systemic action)” value in [4] was found to be 100%. The degree of destruction in series [2] and in series [7] was 100% in each case. The “activity (larvicidal / development inhibition)” value in series [5] was found to be 100%.

With `C#CCOCOc1c(C)c(C2CCCC2)oc(=O)c1-c1c(C)cc(C)cc1C` [Example 33], in series [6], the degree of destruction was 100%.

For orientation: melting point means the temperature of the solid-liquid transition.
